Assay results: US20260028354A1, “TETRAHYDRONAPHTHALENE DERIVATIVES AS ESTROGEN RECEPTOR DEGRADERS” (REGENT OF THE UNIVERSITY OF MICHIGAN, priority 2022, published 2026)
Read-outs that look alike come from different tables or passages of the source.

Assays:
[1] = molecular target: ER in MCF-7 cells (Homo sapiens (Human), UniProt P03372); test: In-cell Western (ICW) ER degradation assay in MCF-7 cells; type: cell-based; conditions: for DC50: MCF-7, ER degradation, read-out: MCF7 DC50; for MCF7 Dmax: MCF-7, maximal ER degradation
ER in MCF-7 cells, sequence (P03372 whole entry): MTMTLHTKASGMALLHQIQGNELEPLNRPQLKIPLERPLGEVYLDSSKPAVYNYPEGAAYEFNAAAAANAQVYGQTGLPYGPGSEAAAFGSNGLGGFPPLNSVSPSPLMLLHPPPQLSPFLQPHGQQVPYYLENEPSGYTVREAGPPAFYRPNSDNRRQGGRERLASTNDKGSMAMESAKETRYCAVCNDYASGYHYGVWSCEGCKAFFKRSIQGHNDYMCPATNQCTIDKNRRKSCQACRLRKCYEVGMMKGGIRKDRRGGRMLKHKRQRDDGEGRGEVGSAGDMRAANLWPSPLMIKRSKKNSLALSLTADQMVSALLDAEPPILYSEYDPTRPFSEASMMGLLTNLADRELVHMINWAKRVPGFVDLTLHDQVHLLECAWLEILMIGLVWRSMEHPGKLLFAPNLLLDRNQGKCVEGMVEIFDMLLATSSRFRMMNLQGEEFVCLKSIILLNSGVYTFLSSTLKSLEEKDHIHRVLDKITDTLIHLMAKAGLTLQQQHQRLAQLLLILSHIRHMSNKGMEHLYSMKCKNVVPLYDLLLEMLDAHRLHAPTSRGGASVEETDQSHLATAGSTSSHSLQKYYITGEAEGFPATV

[2] = molecular target: CRBN/DDB1 (Homo sapiens (Human), UniProt Q96SW2); type: binding; conditions: His tagged CRBN+DDB1, Cy5-labeled Thalidomide probe, one hour; read-out: CRBN HTRF IC50
CRBN/DDB1, sequence (Q96SW2 whole entry, species assumed): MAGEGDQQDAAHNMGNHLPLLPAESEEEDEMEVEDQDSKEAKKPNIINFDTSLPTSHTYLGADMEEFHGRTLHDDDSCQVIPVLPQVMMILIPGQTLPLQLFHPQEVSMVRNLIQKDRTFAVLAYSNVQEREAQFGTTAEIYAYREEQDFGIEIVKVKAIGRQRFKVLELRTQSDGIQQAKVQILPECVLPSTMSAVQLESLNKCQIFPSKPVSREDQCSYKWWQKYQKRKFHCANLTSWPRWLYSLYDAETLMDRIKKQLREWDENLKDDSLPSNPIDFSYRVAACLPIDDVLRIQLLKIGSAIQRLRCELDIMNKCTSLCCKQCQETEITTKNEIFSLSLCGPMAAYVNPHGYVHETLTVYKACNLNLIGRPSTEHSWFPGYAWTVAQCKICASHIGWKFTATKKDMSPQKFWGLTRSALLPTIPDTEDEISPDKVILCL
CRBN/DDB1, sequence (Q16531 whole entry partner, species assumed): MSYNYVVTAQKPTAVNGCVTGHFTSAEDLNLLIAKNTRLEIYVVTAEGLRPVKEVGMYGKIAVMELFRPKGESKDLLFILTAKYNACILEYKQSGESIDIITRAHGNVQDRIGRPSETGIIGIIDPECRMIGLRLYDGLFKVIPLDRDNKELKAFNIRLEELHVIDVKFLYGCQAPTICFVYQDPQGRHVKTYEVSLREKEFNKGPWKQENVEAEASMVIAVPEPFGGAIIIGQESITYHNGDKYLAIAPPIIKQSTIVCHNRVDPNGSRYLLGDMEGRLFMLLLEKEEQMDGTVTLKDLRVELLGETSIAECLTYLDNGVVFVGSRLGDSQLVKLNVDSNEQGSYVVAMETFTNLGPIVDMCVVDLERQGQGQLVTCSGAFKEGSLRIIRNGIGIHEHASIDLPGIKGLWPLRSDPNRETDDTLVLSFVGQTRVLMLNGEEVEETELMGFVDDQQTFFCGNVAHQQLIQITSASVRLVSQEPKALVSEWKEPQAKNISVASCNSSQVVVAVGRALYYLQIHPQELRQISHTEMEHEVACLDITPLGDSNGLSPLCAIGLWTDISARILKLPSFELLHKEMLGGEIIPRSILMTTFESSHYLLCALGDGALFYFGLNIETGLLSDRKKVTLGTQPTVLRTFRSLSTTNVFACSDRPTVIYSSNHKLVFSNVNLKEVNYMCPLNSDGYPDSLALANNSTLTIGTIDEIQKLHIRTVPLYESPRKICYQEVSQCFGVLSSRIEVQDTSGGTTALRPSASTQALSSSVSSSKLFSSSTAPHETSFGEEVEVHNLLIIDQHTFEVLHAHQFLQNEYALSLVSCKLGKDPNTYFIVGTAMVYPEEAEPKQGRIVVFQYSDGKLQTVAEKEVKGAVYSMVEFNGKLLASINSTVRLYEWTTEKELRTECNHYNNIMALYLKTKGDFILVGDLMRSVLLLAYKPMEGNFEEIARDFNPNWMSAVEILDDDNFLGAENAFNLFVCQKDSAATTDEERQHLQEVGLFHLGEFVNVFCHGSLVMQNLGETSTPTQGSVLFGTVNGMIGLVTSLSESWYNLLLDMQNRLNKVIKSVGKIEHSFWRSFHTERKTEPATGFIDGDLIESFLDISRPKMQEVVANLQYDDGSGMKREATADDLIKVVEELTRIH
Protocol: The binding potency was determined using HTRF assay technology (Perkin Elmer). Compounds were serially diluted in DMSO and […] volume was transferred to white 384-well plate.

[3] = molecular target: ER in T47D cells (Homo sapiens (Human), UniProt P03372); test: In-cell Western (ICW) ER degradation assay in T47D cells; type: cell-based; conditions: for DC50: ER degradation
ER in T47D cells, sequence (P03372 whole entry): as the sequence (P03372 whole entry) above

[4] = tested on: MCF-7 cells; test: CellTiter-Glo (CTG) cell proliferation assay in MCF-7 cells; type: cell-based; conditions: Homo sapiens, MCF7, 144 h, MCF-7 cell proliferation, Day 6
Excerpt: CellTiter-Glo® (CTG) Assays in MCF-7 and T47D Cell Lines.
In vitro Assay: MCF-7 and T47D CTG assay

[5] = MCF7, MCF-7, maximal ER degradation, 16 hrs treatment, read-out: MCF7 Dmax
[6] = maximal ER degradation, 16 hrs treatment, read-out: T47D Dmax
[7] = MCF7, read-out: MCF7 Dmax, MCF-7, maximal ER degradation, 16 hrs treatment
[8] = read-out: T47D Dmax, T47D, maximal ER degradation, 16 hrs treatment

Row | Structure (SMILES) | Dmax [1, 5] | DC50 ([1]; 16 hrs treatment) | IC50 [2] | DC50 ([3]; 16 hrs treatment) | Dmax [3, 6] | Dmax [1, 7] | Dmax [3, 8] | MCF7 Dmax ([1]; 16 hrs treatment) | T47D Dmax ([3]; maximal ER degradation, 16 hrs treatment) | IC50 [4]
1 | O=C1CCC(NC(=O)c2ccc(N3CCN(CC4CCN(c5ccc([C@@H]6c7ccc(O)cc7CC[C@@H]6c6ccccc6)cc5)CC4)CC3)cn2)C(=O)N1 (stereo partly drawn) [Compound A58, N-(2,6-dioxopiperidin-3-yl)-5-(4-((1-(4-((1R,2S)-6-hydroxy-2-phenyl-1,2,3,4-tetrahydro-naphthalen-1-yl)phenyl)piper-idin-4-yl)methyl)piperazin-1-yl)picolinamide] | > 75% | < 1 nM | > 5000 nM | < 1 nM | 50 to 75% | – | – | – | – | –
2 | O=C1CC[C@@H](Nc2ccc([C@@]34CCN(CC5CCC6(CC5)CN(c5ccc([C@@H]7c8ccc(O)cc8CC[C@@H]7c7ccccc7)cc5)C6)C[C@@H]3C4(F)F)cc2)C(=O)N1 [Compound A64, (R)-3-((4-((1R,6R)-7,7-difluoro-3-((2-(4-((1R,2S)-6-hydroxy-2-phenyl-1,2,3,4-tetra-hydronaphthalen-1-yl)phenyl)-2-azaspiro[3.5]nonan-7-yl)-methyl)-3-azabicyclo[4.1.0]heptan-6-yl)phenyl)amino)-piperidine-2,6-dione] | – | 1 to 10 nM | > 5000 nM | 1 to 10 nM | – | 50 to 75% | 50 to 75% | – | – | –
3 | O=C1CC[C@@H](Nc2ccc([C@@]34CCN(CC5CC6(CCN(c7ccc([C@@H]8c9ccc(O)cc9CC[C@@H]8c8ccccc8)cc7)CC6)C5)C[C@@H]3C4(F)F)cc2)C(=O)N1 [Compound A67, (R)-3-((4-((1R,6R)-7,7-difluoro-3-((7-(4-((1R,2S)-6-hydroxy-2-phenyl-1,2,3,4-tetrahydronaphthalen-1-yl)-phenyl)-7-azaspiro[3.5]nonan-2-yl)methyl)-3-azabicyclo [4.1.0]heptan-6-yl)phenyl)-amino)piperidine-2,6-dione] | – | 1 to 10 nM | > 5000 nM | 1 to 10 nM | – | 50 to 75% | 50 to 75% | – | – | –
4 | COc1cc(N2CCC(CN3CC[C@]4(c5ccc(N[C@@H]6CCC(=O)NC6=O)cc5)[C@H](C3)C4(F)F)CC2)ccc1[C@@H]1c2ccc(O)cc2CC[C@@H]1c1ccccc1 [Compound A89, (R)-3-((4-((1R,6R)-7,7-difluoro-3-((1-(4-((1S,2S)-6-hydroxy-2-phenyl-1,2,3,4-tetra-hydronaphthalen-1-yl)-3-meth-oxyphenyl)piperidin-4-yl)meth-yl)-3-azabicyclo[4.1.0]heptan-6-yl)phenyl)amino)-piperidine-2,6-dione] | – | < 1 nM | > 5000 nM | < 1 nM | – | 25 to 50% | 25 to 50% | – | – | –
5 | COc1cc(N2CCC(CN3CC[C@]4(c5ccc(N[C@H]6CCC(=O)NC6=O)cc5)[C@H](C3)C4(F)F)CC2)ccc1[C@@H]1c2ccc(O)cc2CC[C@@H]1c1ccccc1 [Compound A90, (S)-3-((4-((1R,6R)-7,7-difluoro-3-((1-(4-((1S,2S)-6-hydroxy-2-phenyl-1,2,3,4-tetra-hydronaphthalen-1-yl)-3-meth-oxyphenyl)piperidin-4-yl)meth-yl)-3-azabicyclo[4.1.0]heptan-6-yl)phenyl)amino)piperidine-2,6-dione] | – | < 1 nM | > 5000 nM | < 1 nM | – | 25 to 50% | 25 to 50% | – | – | –
6 | COc1cc(N2CCC(CN3CC[C@@]4(c5ccc(N[C@H]6CCC(=O)NC6=O)cc5)C(C3)C4(F)F)CC2)ccc1[C@@H]1c2ccc(O)cc2CC[C@@H]1c1ccccc1 (stereo partly drawn) [Compound A92, (3S)-3-((4-((1R)-7,7-difluoro-3-((1-(4-((1S,2S)-6-hydroxy-2-phenyl-1,2,3,4-tetrahydronaph-thalen-1-yl)-3-methoxyphenyl)-piperidin-4-yl)methyl)-3-azabi-cyclo[4.1.0]heptan-6-yl)phen-yl)amino)piperidine-2,6-dione] | – | < 1 nM | > 5000 nM | 1 to 10 nM | – | 25 to 50% | 25 to 50% | – | – | –
7 | COc1cc(N2CCC(CN3CCC4(CC3)COc3c4ccc4c3CN([C@H]3CCC(=O)NC3=O)C4=O)CC2)c(F)cc1[C@@H]1c2ccc(O)cc2CC[C@@H]1c1ccccc1 [Compound A93, (S)-3-(1′-((1-(2-fluoro-4-((1S,2S)-6-hydroxy-2-phenyl-1,2,3,4-tetrahydronaphthalen-1-yl)-5-methoxyphenyl)piperidin-4-yl)methyl)-6-oxo-6,8-dihydro-2H,7H-spiro[furo[2,3-e]isoindole-3,4′-piperidin]-7-yl)piperidine-2,6-dione] | – | < 1 nM | < 50 nM | < 1 nM | – | 50 to 75% | 50 to 75% | – | – | –
8 | COc1cc(N2CCC3(CC2)CC(CN2CCN4c5ccc(C(=O)N[C@H]6CCC(=O)NC6=O)nc5OC[C@@H]4C2)C3)c(F)cc1[C@@H]1c2ccc(O)cc2CC[C@@H]1c1ccccc1 [Compound A104, (S)-N-((S)-2,6-dioxopiperidin-3-yl)-3-((7-(2-fluoro-4-((1S,2S)-6-hydroxy-2-phenyl-1,2,3,4-tetrahydronaphthalen-1-yl)-5-methoxyphenyl)-7-azaspiro[3.5]nonan-2-yl)methyl)-1,2,3,4,4a,5-hexahydropyrazino[1,2-d]pyrido[2,3-b][1,4]oxazine-8-carboxamide] | 50 to 75% | 1 to 10 nM | > 5000 nM | < 1 nM | > 75% | – | – | – | – | –
9 | COc1cc(N2CCC3(CC2)CC(CN2CCN4c5ccc(C(=O)N[C@H]6CCC(=O)NC6=O)nc5OC[C@H]4C2)C3)c(F)cc1[C@@H]1c2ccc(O)cc2CC[C@@H]1c1ccccc1 [Compound A111, (R)-N-((S)-2,6-dioxopiperidin-3-yl)-3-((7-(2-fluoro-4-((1S,2S)-6-hydroxy-2-phenyl-1,2,3,4-tetrahydronaphthalen-1-yl)-5-methoxyphenyl)-7-azaspiro[3.5]nonan-2-yl)methyl)-1,2,3,4,4a,5-hexahydropyrazino[1,2-d]pyrido[2,3-b][1,4]oxazine-8-carboxamide] | 50 to 75% | 1 to 10 nM | > 5000 nM | 1 to 10 nM | > 75% | – | – | – | – | –
10 | O=C1CC[C@H](N2Cc3cc4c(cc3C2=O)OC[C@@H]2CN(CC3CCC5(CC3)CN(c3ccc([C@@H]6c7ccc(O)cc7CC[C@@H]6c6ccccc6)cn3)C5)CCN42)C(=O)N1 [Compound A124, (S)-3-((S)-3-((2-(5-((1S,2S)-6-hydroxy-2-phenyl-1,2,3,4-tetrahydronaphthalen-1-yl)pyridin-2-yl)-2-azaspiro[3.5]nonan-7-yl)methyl)-8-oxo-1,2,3,4,4a,5,8,10-octahydro-9H-pyrazino[1′,2′: 4,5][1,4]oxazino[2,3-f]isoindol-9-yl)piperidine-2,6-dione] | – | 10 to 100 nM | 500 to 5000 nM | 10 to 100 nM | 50 to 75% | – | – | B (“B”: >50 and <75%) | – | –
11 | O=C1CC[C@H](N2Cc3cc4c(cc3C2=O)OCC42CCN(CC3CC4(CCN(c5ccc([C@@H]6c7ccc(O)cc7CC[C@@H]6c6ccccc6)cn5)CC4)C3)CC2)C(=O)N1 [Compound A126, (S)-3-(1′-((7-(5-((1S,2S)-6-hydroxy-2-phenyl-1,2,3,4-tetra-hydronaphthalen-1-yl)pyridin-2-yl)-7-azaspiro[3.5]nonan-2-yl)methyl)-7-oxo-5,7-dihydro-2H,6H-spiro[furo[2,3-f]iso-indole-3,4′-piperidin]-6-yl)-piperidine-2,6-dione] | – | < 1 nM | 50 to 500 nM | < 1 nM | – | – | – | B (“B”: >50 and <75%) | A (“A”: >=75%) | –
12 | O=C1CC[C@H](N2Cc3c(ccc4c3OCC43CCN(CC4CC5(CCN(c6ccc([C@H]7c8ccc(O)cc8CC[C@H]7c7ccccc7)cc6F)CC5)C4)CC3)C2=O)C(=O)N1 [Compound A148, (S)-3-(1′-((7-(2-fluoro-4-((1S,2R)-6-hydroxy-2-phenyl-1,2,3,4-tetrahydronaphthalen-1-yl)phenyl)-7-azaspiro[3.5]nonan-2-yl)methyl)-6-oxo-6,8-dihydro-2H,7H-spiro[furo[2,3-e]isoindole-3,4′-piperidin]-7-yl)piperidine-2,6-dione] | – | < 1 nM | < 50 nM | < 1 nM | – | 50 to 75% | > 75% | – | – | –
13 | COc1cc(N2CCC3(CC2)C[C@H](CN2CCC4(CC2)COc2c4cc(C)c4c2CN([C@H]2CCC(=O)NC2=O)C4=O)CO3)c(F)cc1[C@@H]1c2ccc(O)cc2CC[C@@H]1c1ccccc1 [Compound A208, (3S)-3-[1′-[[(3R)-8-[2-fluoro-4-[(1S,2S)-6-hydroxy-2-phenyl-tetralin-1-yl]-5-methoxy-phenyl]-1-oxa-8-azaspiro[4.5]decan-3-yl]methyl]-5-methyl-6-oxo-spiro[2,8-dihydrofuro[2,3-e]isoindole-3,4′-piperidine]-7-yl]piperidine-2,6-dione] | – | – | – | – | – | – | – | – | – | 10 to 100 nM
14 | Cc1cc2c(c3c1C(=O)N([C@H]1CCC(=O)NC1=O)C3)OCC21CCN(C[C@@H]2CCC3(CCN(c4ccc([C@@H]5c6ccc(O)cc6CC[C@@H]5c5ccccc5)cc4)CC3)OC2)CC1 [Compound A209, (S)-3-(1′-(((S)-9-(4-((1R,2S)-6-hydroxy-2-phenyl-1,2,3,4-tetrahydronaphthalen-1-yl)phenyl)-1-oxa-9-azaspiro[5.5]undecan-3-yl)methyl)-5-methyl-6-oxo-6,8-dihydro-2H,7H-spiro[furo[2,3-e]isoindole-3,4′-piperidin]-7-yl)piperidine-2,6-dione] | – | – | – | – | – | – | – | – | – | < 10 nM
